Results on one molecule are retold here after US6037351A, “Method of inhibiting hepatitis B virus” (priority 1996, dated 2000).

The test system of one assay is LHBs (PreS1) antigen. Nature of the assay: ELISA of LHBs (PreS1) antigen in unfractionated culture medium of 2.2.15 cells. It counts as cell-based, HBV. As to the method: FIG. 3D: Histogram of the area under the averaged peaks of the densitometric tracing of the gel in FIG. 3B. […] Equal volumes of the indicated samples were tested for HBV envelope antigens using the enzyme-linked imminosorbent assay (ELISA) method. Samples of unfractionated medium (FIGS. 4A, 4B and 4C) or partially purified virus (FIGS. 4D, 4E and 4F) from 3-day cultures were tested for HBV SHBs ("S) (FIGS. 4A and 4D), LHBs: "PreS1" (FIGS. 4B and 4E) or MHBs "PreS2" (FIGS. 4C and 4F) epitopes. Cultures were maintained in the indicated concentrations of NBDNJ, expressed in millimolar units and shown along the X axis.
Detection of HBV proteins by the Enzyme Linked Immunoabsorbant assay (ELISA).
Monoclonal antibodies used herein are well-known and are described by Heerman et al., J. Virol. […]
Bound antigen was detected by incubation with peroxidase conjugated goat anti-HBs antibody (Behring) followed by development in orthophenylenediamine (0.33 mg/ml PBS-peroxide solution). Optical densities were read in a Behring plate reader. Tests on purified virus and total medium were conducted over a series of sample dilutions to insure proper quantification.
To distinguish between these possibilities, the amount and nature of envelope antigens in the culture medium was determined by both ELISA and Western analysis. […]
(In general: In an ELISA, binding on a coated surface is turned into a signal by an enzyme label.)

The next assay deals with hepatitis B virus (HBV). Nature of the assay: Intracellular HBV DNA in 2.2.15 cells (Southern blot, densitometry). It counts as cell-based, HBV in human hepatoma HepG 2.2.15 cells. As to conditions: for increase in intracellular HBV copy abundance: adjusted for loading variation. How it is done: HepG 2.2.15 cells were grown for 6 days in the presence of the indicated concentration of NBDNJ with one change of medium. After the sixth day (seventh day in culture), cells and medium were collected. Autoradiograms of the viral DNA detected by hybridization of membranes to HBV probes are shown.
FIG. 2B: autoradiogram of a Southern blot of total intracellular DNA, digested to completion with EcoRI, from cells maintained in the absence of NBDNJ (lane 1) and in the presence of the following NBDNJ concentrations:
DNA was prepared from the pellets as in Sells and Chen, Proc. Natl. Acad. Sci. USA 84, 1005-1009 (1987). For Southern blots [Maniatis et al., Molecular cloning, a laboratory manual, Cold Spring Harbor Laboratory, Cold Spring Harbor, N.Y. (1982)], DNA was resolved by electrophoresis through 1.2% agarose, transferred to H+ bond (Amersham) filter paper and hybridized with radioactive ^32 P (Amersham) HBV probe (made by the random priming method described by the kit manufacturer, (Amersham), using pHBV as template [Foster et al., Proc. Natl. Acad. Sci. USA 88, 2888-2892 (1991)].
The NBDNJ-mediated decrease in virion associated HBV DNA in the medium could have been due to a decrease in viral DNA synthesis. Alternatively, it could have been due to a post synthetic event such as virion assembly, transport or egress from the cell. To distinguish between these possibilities, the amount of intracellular HBV specific DNA in untreated and NBDNJ treated 2.2.15 cells was compared.
Total cellular DNA was prepared from treated and untreated cells and digested to completion with EcoRI to linearize viral genomes. Near equal microgram amounts of digestion products (as determined by ethidium bromide staining and hybridization to a cell specific probe) were resolved by electrophoresis, Southern blotted and hybridized with the HBV specific probe (FIG. 2B). Unit length HBV genomes migrating as 3.2 kb bands are detected in DNA derived from untreated 2.2.15 cells (lane 1) and virions isolated from control culture medium (lane 5).

The subject of the next assay is HIV. The conditions noted are these: read-out: EC50 for inhibition of HIV replication; cited from earlier work.
The next assay relates to HBs proteins. Nature of the assay: Western blot of all HBs proteins in virions, filaments and spheres fractions. The conditions noted are these: medium of NBDNJ treated cultures, FIGS. 5B and 5C. It counts as cell-based, HBV. As to the method: Polyethylene glycol (PEG) precipitates of culture medium (FIG. 5A) or partly purified virions, HBs filaments and spheres from untreated (FIG. 5B) and NBDNJ treated (FIG. 5C) cultures were resolved by SDS-PAGE (13.5% acrylamide), transferred to immobilin paper and incubated with PreS1 and PreS2 specific monoclonal antibody.
Samples were dissolved in loading buffer, resolved by electrophoresis through 13.5% SDS polyacrylamide gels (SDS-PAGE) and transferred to PVDF (Millipore) membranes and blocked with 5% powdered milk, as in Gultekin and Heerman, Analytical Biochem. 172, 320-329 (1989). After incubation with primary antibody overnight at room temperature in 1% bovine serum albumin (BSA) in TNE and second antibody (peroxidase conjugated goat anti-mouse IgG serum) for 1 hour in TNE at room temperature, membranes were developed in peroxide-diaminobenzidine (Sigma) PBS, as described in the manufacturer's instructions.
The ELISA results were confirmed by Western blot analysis of fractions from the sucrose gradient containing either intact virus, filaments or spheres (FIGS. 5B, from untreated cultures, and 5C, from NBDNJ treated cultures). […]
Fractions distal to the virion containing fractions (near the bottom of the gradient) were resolved in lane 1 to show specificity of the antibody. […] The images shown in FIGS. 5B and 5C) were quantified by densitometry.
(A western blot detects proteins with antibodies after separation by electrophoresis.)

Broadly, the EC50 is the concentration that produces a half-maximal response. As for `CCCCN1C[C@H](O)[C@@H](O)[C@H](O)[C@H]1CO` [NBDNJ, N-butyl-1,5-dideoxy-1,5-imino-D-glucitol], the “effect upon total amount of LHBs (PreS1) antigen in medium” value in the assay with LHBs (PreS1) antigen is listed as “no significant effect”. Also, the “increase in intracellular HBV copy abundance” value in the assay on hepatitis B virus (HBV) (NBDNJ 200 μg/ml) is 1.7 fold; in the assay on hepatitis B virus (HBV) (NBDNJ 500 μg/ml) it was 3.0 fold; with hepatitis B virus (HBV) (NBDNJ 1000 μg/ml), 5.1 fold. In addition, the “amount of intracellular HBV DNA (in words)” value with hepatitis B virus (HBV) (NBDNJ 200, 500, 1000 μg/ml) is reported as “clear dose-dependent increase”. Besides, the concentration for a half-maximal effect (EC50) in the assay with HIV was 43 µM. Moreover, the “amount of all HBs proteins in virions, filaments and spheres” value with HBs proteins is given as “decrease in the amount of all HBs proteins”.
